Measurements from paper PMC12903969, “Discovery of a Novel and Potent Kir4.1 Inhibitor as a Safe and Rapid‐Onset Antidepressant Agent in Mice” (Advanced Science, 2025).
Where two headings read alike, the source gives them in different places.

Key:
Kir4.1 = molecular target: T1, Kir4.1 (Homo sapiens, UniProt P78508); assay: Whole-cell patch clamp, Kir4.1 currents in transfected CHO-K1 cells; format: cell-based; conditions: for inhibition at 1 µM: CHO-K1, 1 μM; for inhibition at 10 µM: CHO-K1, 10 μM; for inhibition at 0.5 µM: CHO-K1, 0.5 μM; for IC50: whole-cell patch clamp
T1 construct: host or cells: CHO-K1
T1 sequence (P78508 1-379): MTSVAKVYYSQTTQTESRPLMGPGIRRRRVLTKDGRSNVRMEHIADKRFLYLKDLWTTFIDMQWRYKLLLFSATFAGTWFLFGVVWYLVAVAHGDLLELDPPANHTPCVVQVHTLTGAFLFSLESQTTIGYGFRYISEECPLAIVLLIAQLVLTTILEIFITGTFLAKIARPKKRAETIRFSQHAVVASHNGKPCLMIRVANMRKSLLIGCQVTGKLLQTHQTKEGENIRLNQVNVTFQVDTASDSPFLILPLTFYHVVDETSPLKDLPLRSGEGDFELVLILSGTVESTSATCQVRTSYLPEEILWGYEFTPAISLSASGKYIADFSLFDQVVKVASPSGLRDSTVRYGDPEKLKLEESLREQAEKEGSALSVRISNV
Description: Plasmids encoding WT human potassium channels Kir1.1, Kir2.1, Kir2.2, Kir4.1, and Kir4.2 were obtained from the Beijing Genomics Institute. All point mutations were constructed using the QuickChange II Site‐Directed Mutagenesis Kit (Stratagene) and subsequently verified by sequencing.
CHO‐K1 cells were maintained in DMEM/F12 growth medium containing 10% fetal bovine serum. Plasmids encoding the target genes (3600 ng) and enhanced green fluorescent protein (400 ng) were cotransfected into cells using Lipofectamine 2000 (Invitrogen) in accordance with the manufacturer's instructions. Cells were seeded onto poly‐d‐lysine (PDL)‐coated glass coverslips 1 h prior to electrophysiological recordings. All cells were cultured under standard conditions of 5% CO2 at 37 °C.
Whole‐cell patch‐clamp recordings were obtained either in transiently transfected CHO‐K1 cells or in primary cultured astrocytes at room temperature using standard patch‐clamp techniques with an Axopatch‐700B amplifier (Axon Instruments). The signals were filtered at 2 kHz and sampled at 20 kHz using the Digidata 1440A interface (Axon Instruments). The resistance of borosilicate glass pipettes was typically 2–4 MΩ when filled with the internal solution. Drug application was facilitated using a BPS perfusion system (ALA Scientific Instruments). Macroscopic currents generated by expressed potassium channels were recorded under the voltage‐clamp conditions with an internal pipette solution composed of (in mM): 140 KCl, 5 NaCl, 1 CaCl2, 1 MgCl2, 10 HEPES, and 10 EGTA, pH 7.2 adjusted with KOH. The external solution contained (in mM): 140 NaCl, 5 KCl, 2 CaCl2, 1 MgCl2, 10 glucose, and 10 HEPES, pH 7.4 adjusted with NaOH. Currents were elicited with a hyperpolarized voltage at −120 mV from the holding potential of −80 mV, followed by a ramp voltage depolarizing to +50 mV. Astrocytic resting membrane potentials were recorded under current‐clamp conditions (I = 0 pA) using standard internal and external solutions, determined immediately after achieving whole‐cell mode.

[1] = tested on: MDA-MB-468 breast cancer cells; assay: Cytotoxicity test (CCK-8); format: cell-based
Description: Cytotoxicity of all the tested compounds was determined using the cell counting kit‐8 (CCK‐8) assay kit (Beyotime, Shanghai, China). Briefly, MDA‐MB‐468 was cultured in L15 medium and plated in 96‐well plates at a density of 12,000 cells per well for 24 h at 37 °C in a 5% CO2 incubator. The tested compounds were dissolved in DMSO and diluted with culture medium (DMSO final concentration < 0.4%). Then the cells were treated with compounds (0.41, 1.23, 3.70, 11.11, 33.33, 100.00 µM) for 48 h. After treatments, removal of the supernatant liquor, 100 µL of new media diluted CCK‐8 solution (10% CCK‐8) was added into each well and incubated at 37 °C for 2 h. The absorbance of the mixture was directly measured at 450 nm. The results are presented as a percentage of the control.

[2] = +50 mV, read-out: Kir4.1 Inhibition ± SD (%) at 1 μM, +50 mV
[3] = -120 mV, read-out: Kir4.1 Inhibition ± SD (%) at 1 μM, -120 mV
[4] = +50 mV, read-out: Kir4.1 Inhibition ± SD (%) at 10 μM, +50 mV
[5] = -120 mV, read-out: Kir4.1 Inhibition ± SD (%) at 10 μM, -120 mV
[6] = Homo sapiens, MDA-MB-468, MDA-MB-468 breast cancer cells, read-out: IC50 ± SD (μM) for MDA-MB-468 Inhibition
[7] = +50 mV, read-out: Kir4.1 Inhibition ± SD (%) at 0.5 μM, +50 mV
[8] = -120 mV, read-out: Kir4.1 Inhibition ± SD (%) at 0.5 μM, -120 mV
[9] = MDA-MB-468 breast cancer cells, read-out: IC50 ± SD (μM) for MDA-MB-468 Inhibition

Structure (SMILES)	inhibition at 1 µM (Kir4.1; [2])	inhibition at 1 µM (Kir4.1; [3])	inhibition at 10 µM (Kir4.1; [4])	inhibition at 10 µM (Kir4.1; [5])	IC50 [1, 6]	other results
CC(CNc1nccc(Nc2ccc3oc4ccccc4c3c2)n1)CN1CCOCC1 (stereo not shown) [JX3233, N^4-(dibenzo[b,d]furan-2-yl)-N^2-(2-methyl-3-morpholinopropyl)pyrimidine-2,4-diamine]	4.34 ± 8.43%	2.58 ± 3.95%	92.2 ± 1.15%	97.2 ± 1.69%	10.44 ± 0.01 µM	–
c1ccc2c(c1)oc1ccc(Nc3ccnc(NCCCN4CCCCCC4)n3)cc12 [JX3249, N^2-(3-(azepan-1-yl)propyl)-N^4-(dibenzo[b,d]furan-2-yl)pyrimidine-2,4-diamine]	92.4 ± 1.44%	82.2 ± 2.24%	98.49 ± 0.04%	94.9 ± 1.88%	5.1 ± 0.21 µM	inhibition at 0.5 µM (Kir4.1; [7]): 56 ± 5.59%; inhibition at 0.5 µM (Kir4.1; [8]): 46.4 ± 8.18%
c1ccc2c(c1)oc1ccc(Nc3ccnc(NCCCN4CCCC4)n3)cc12 [JX3239, N^4-(dibenzo[b,d]furan-2-yl)-N^2-(3-(pyrrolidin-1-yl)propyl)pyrimidine-2,4-diamine]	53.2 ± 3.51%	36.4 ± 5.31%	96 ± 2.25%	90.9 ± 4.5%	11.1 ± 0.81 µM	–
c1cc(NCCCN2CCOCC2)nc(Nc2ccc3oc4ccccc4c3c2)c1 [JX3220, N^2-(dibenzo[b,d]furan-2-yl)-N^6-(3-morpholinopropyl)pyridine-2,6-diamine]	–	–	2.61 ± 1.87%	3.98 ± 1.6%	8.74 ± 0.36 µM	–
CC1(C)c2ccccc2-c2cc(Nc3ccnc(NCCCN4CCOCC4)n3)ccc21 [JX3210, N^4-(9,9-dimethyl-9H-fluoren-3-yl)-N^2-(3-morpholinopropyl)pyrimidine-2,4-diamine]	62 ± 4.2%	42.7 ± 2.34%	93.2 ± 3.42%	98.69 ± 0.66%	2.66 ± 0.51 µM	–
O=C1c2ccccc2-c2cc(Nc3ccnc(NCCCN4CCOCC4)n3)ccc21 [JX3211, 3-((2-((3-morpholinopropyl)amino)pyrimidin-4-yl)amino)-9H-fluoren-9-one]	28.8 ± 5.45%	21.3 ± 8.61%	89.2 ± 1.72%	81 ± 2.36%	29.8 ± 0.5 µM	–
c1ccc2c(c1)oc1ccc(Nc3cncc(NCCCN4CCOCC4)n3)cc12 [JX3224, N^2-(dibenzo[b,d]furan-2-yl)-N^6-(3-morpholinopropyl)pyrazine-2,6-diamine]	29.1 ± 11.8%	11.3 ± 5.07%	–	–	–	Kir4.1 Inhibition ± SD (%) at 10 μM, +50 mV (Kir4.1; +50 mV, 10 µM): 96.66 ± 1.05%; Kir4.1 Inhibition ± SD (%) at 10 μM, -120 mV (Kir4.1; -120 mV): 87.90 ± 2.73%; IC50 [1, 9]: 21.6 ± 0.8 µM
CC(C)(C)OC(=O)NCCCNc1nccc(Nc2ccc3oc4ccccc4c3c2)n1 [JX3237, tert-butyl (3-((4-(dibenzo[b,d]furan-2-ylamino)pyrimidin-2-yl)amino)propyl)carbamate]	12.5 ± 7.25%	7.65 ± 4.73%	89.1 ± 3.59%	73.8 ± 0.93%	4.84 ± 0.06 µM	–
C[C@@H]1CN(CCCNc2nccc(Nc3ccc4oc5ccccc5c4c3)n2)C[C@H](C)O1 [JX3242, N^4-(dibenzo[b,d]furan-2-yl)-N^2-(3-((2S,6R)-2,6-dimethylmorpholino)propyl)pyrimidine-2,4-diamine]	-0.93 ± 7.76%	-3.38 ± 9.3%	97.5 ± 1.92%	94.2 ± 1.77%	5.38 ± 0.11 µM	–
c1ccc2c(c1)oc1ccc(Nc3ccnc(NCCCN4CCCOCC4)n3)cc12 [JX3250, N^2-(3-(1,4-oxazepan-4-yl)propyl)-N^4-(dibenzo[b,d]furan-2-yl)pyrimidine-2,4-diamine]	44 ± 9.96%	30.4 ± 8.64%	97.4 ± 1.14%	88.3 ± 4.59%	12.2 ± 0.87 µM	–
c1ccc2c(c1)oc1ccc(Nc3cc(NCCCN4CCOCC4)ncn3)cc12 [JX3222, N^4-(dibenzo[b,d]furan-2-yl)-N^6-(3-morpholinopropyl)pyrimidine-4,6-diamine]	5.55 ± 2.74%	-0.94 ± 6.65%	87.3 ± 6.4%	71.1 ± 6.03%	44 ± 1.48 µM	–
c1cc(NC23CC4CC(CC(C4)C2)C3)nc(NCCCN2CCOCC2)n1 [JX3203, N^4-((1s,3s)-adamantan-1-yl)-N^2-(3-morpholinopropyl)pyrimidine-2,4-diamine]	–	–	–	–	–	Kir4.1 Inhibition ± SD (%) at 10 μM, +50 mV (Kir4.1; +50 mV): 64.79 ± 0.85%; Kir4.1 Inhibition ± SD (%) at 10 μM, -120 mV (Kir4.1; -120 mV): 31.27 ± 3.29%; IC50 [1, 9]: 22.2 ± 5.05 µM
O=c1c2ccccc2[nH]c2ccc(Nc3ccnc(NCCCN4CCOCC4)n3)cc12 [JX3208, 2-((2-((3-morpholinopropyl)amino)pyrimidin-4-yl)amino)acridin-9(10H)-one]	–	–	1.43 ± 3.1%	2.21 ± 9.84%	16.8 ± 0.51 µM	–
c1ccc(Nc2ccnc(NCCCN3CCOCC3)n2)cc1 [JX3204, N^2-(3-morpholinopropyl)-N^4-phenylpyrimidine-2,4-diamine]	–	–	5.73 ± 2.33%	0.47 ± 2.29%	> 50 µM	–
CCn1c2ccccc2c2cc(Nc3ccnc(NCCCN4CCOCC4)n3)ccc21 [EHop-016, N ^4‐(9‐ethyl‐9H‐carbazole‐3‐yl)‐N ^2‐(3‐morpholinopropyl)pyrimidine‐2,4‐diamine, reference compound]	76 ± 1.81%	64.6 ± 5.93%	96.6 ± 1.38%	97 ± 1.86%	–	inhibition at 0.5 µM (Kir4.1; [7]): 17.2 ± 2.53%; inhibition at 0.5 µM (Kir4.1; [8]): 19 ± 3.75%; IC50 (Kir4.1; CHO cells transiently expressing Kir4.1, +50 mV, read-out: IC50 for Kir4.1 inhibition (+50 mV, outward currents)): 0.61 µM; IC50 (Kir4.1; CHO cells transiently expressing Kir4.1, −120 mV, read-out: IC50 for Kir4.1 inhibition (−120 mV, inward currents)): 0.74 µM; IC50 ([1]; Homo sapiens, MDA-MB-468, 48 h, CCK-8, 48 h, read-out: IC50 against MDA-MB-468 breast cancer cells): 5.98 ± 0.67 µM
CC1(C)C2CN(CCCNc3nccc(Nc4ccc5oc6ccccc6c5c4)n3)CC21 (stereo not shown) [JX3240, N^4-(dibenzo[b,d]furan-2-yl)-N^2-(3-(6,6-dimethyl-3-azabicyclo[3.1.0]hexan-3-yl)propyl)pyrimidine-2,4-diamine]	90 ± 1.44%	84.7 ± 4.13%	97.46 ± 0.83%	97.35 ± 0.65%	5.37 ± 0.22 µM	inhibition at 0.5 µM (Kir4.1; [7]): -0.92 ± 3.58%; inhibition at 0.5 µM (Kir4.1; [8]): -0.29 ± 1.05%
c1ccc2nc3ccc(Nc4ccnc(NCCCN5CCOCC5)n4)cc3cc2c1 [JX3209, N^4-(acridin-2-yl)-N^2-(3-morpholinopropyl)pyrimidine-2,4-diamine]	-0.09 ± 6.09%	5.58 ± 4.14%	85.9 ± 3.9%	86.4 ± 4.85%	38.4 ± 4.21 µM	–
c1ccc2c(c1)oc1ccc(N3CCC4(CC3)CN(CCCN3CCOCC3)C4)cc12 [JX3229, 4-(3-(7-(dibenzo[b,d]furan-2-yl)-2,7-diazaspiro[3.5]nonan-2-yl)propyl)morpholine]	–	–	26.8 ± 9.64%	4.9 ± 7.34%	29.5 ± 1.09 µM	–
